In brackets after ≈: the same amount, converted by molar mass.
Tests used:
[1] = system: 4T1 breast cancer; assay: In-vivo pharmacodynamic test, tumor-bearing mice; settings: 4T1 breast cancer tumor-bearing mice, 5 mg/kg adriamycin equivalent, intravenously injected 4 times
Procedure: (§1) In-vivo pharmacodynamic test: H22 liver cancer cells, 4T1 breast cancer cells, EMT6 breast cancer cells and HT-29 colon cancer cells that were growing at logarithmic phase were collected, and the concentration of the cell suspension was adjusted to 3×10^7 cells/mL. The cells were subcutaneously inoculated into right upper extremity of Balb/c mice or nude mice with 0.1 mL per mouse (containing about 3×10^6 cells). After the average tumor volume of the inoculated mice was reached 100 mm^3, the tumor-bearing mice were randomly divided into a negative control group (with 0.9% sodium chloride injection), an adriamycin control group (5 mg/kg) and a pectin-adriamycin experimental group (the equivalent of adriamycin being 5 mg/kg) respectively, 8 mice for each group, the above various drugs were intravenously injected for 4 times in total. The tumor volume change and the body weights were recorded, and the equation for volume calculation was as follows: volume=(length×width^2)/2.

[2] = system: EMT-6 breast cancer; assay: In-vivo pharmacodynamic test, tumor-bearing mice; settings: EMT-6 breast cancer tumor-bearing mice, 5 mg/kg adriamycin equivalent, intravenously injected 4 times
Procedure: as §1

[3] = system: H22 liver cancer; assay: In-vivo pharmacodynamic test, tumor-bearing mice; settings: 5 mg/kg adriamycin equivalent, intravenously injected 4 times
Procedure: as §1

[4] = system: HepG-2 liver cancer cells; assay: In-vitro cytotoxicity test (CCK-8); format: cell-based
Procedure: (§2) In-vitro cytotoxicity test: HT-29 colon cancer cells, HepG-2 liver cancer cells, SMMC7721 liver cancer cells, SKOV3 ovarian cancer cells and MCF-7 breast cancer cells that were growing at the logarithmic phase were collected. The concentration of cell suspension was adjusted, and 100 uL of the cell suspension was added per well, then the cells were plated so that the density of cells to be tested was 4000 cells/well (the marginal wells being filled with a sterile PBS). Incubation was performed for 24 hours at 5% CO2 and 37° C. Then the medium was discarded, and pectin-adriamycin or adriamycin with a concentration gradient (containing 0.125, 0.25, 0.5, 1.0, 2.0, 4.0, 8.0 and 16.0 ug/mL of […]) was added, and three repetitions were set for each concentration. Then incubation was performed for 48 hours in an incubator at 5% CO2 and 37° C. 10 μl of a CCK-8 solution was added to each well to continue cultivation for 2 hours. The absorbance of each well at 450 nm was measured with an Enzyme-labelled meter, and IC50 values of pectin-adriamycin and adriamycin for various cancer cells were calculated.

[5] = system: SKOV3 ovarian cancer cells; assay: In-vitro cytotoxicity test (CCK-8); format: cell-based
Procedure: as §2

[6] = system: HT-29 colon cancer cells; assay: In-vitro cytotoxicity test (CCK-8); format: cell-based
Procedure: as §2

[7] = system: MCF-7 breast cancer cells; assay: In-vitro cytotoxicity test (CCK-8); format: cell-based
Procedure: as §2

[8] = system: SMMC7721 liver cancer cells; assay: In-vitro cytotoxicity test (CCK-8); format: cell-based
Procedure: as §2

[9] = Body weight and death of tumor-bearing mice in the in-vivo pharmacodynamic test
Procedure: as §1

[10] = system: HT-29 colon cancer; assay: In-vivo pharmacodynamic test, tumor-bearing mice; settings: HT-29 colon cancer tumor-bearing mice, 5 mg/kg adriamycin equivalent, intravenously injected 4 times
Procedure: as §1

[11] = system: 4T1 breast cancer; assay: Comparison with the control compound, 4T1 breast cancer mice tumor model; format: in vivo
[12] = Solubility in water; format: physicochemical
[13] = system: H22 liver cancer; assay: Comparison with the control compound, H22 liver cancer mice tumor model; format: in vivo
[14] = tumor-bearing mice, 5 mg/kg adriamycin equivalent, i.v. 4 times
[15] = Example 16, conjugate intravenous, control intraperitoneal

In the case of `COc1cccc2c1C(=O)c1c(O)c3c(c(O)c1C2=O)C[C@@](O)(C(=O)CO)C[C@@H]3O[C@H]1C[C@H](N)[C@H](O)[C@H](C)O1` [adriamycin, reference compound], the “tumor growth inhibition rate” value [1] is reported as 50.61%, the “tumor growth inhibition rate” value [2] is reported as 56.95% and the “tumor growth inhibition rate” value [3] is reported as 53.42%. It also gave an IC50 ([4]; Homo sapiens, HepG2, 48 hours incubation) of 4.38 µg/mL (≈ 8.05 µM), an IC50 ([5]; Homo sapiens, SK-OV-3, 48 hours incubation) of 5.7 µg/mL (≈ 10.5 µM) and an IC50 ([6]; Homo sapiens, HT-29, 48 hours incubation) of 10.9 µg/mL (≈ 20.1 µM). The IC50 ([7]; Homo sapiens, MCF7, 48 hours incubation) was 3.97 µg/mL (≈ 7.3 µM), the IC50 ([8]; Homo sapiens, SMMC-7721, 48 hours incubation) was 2.62 µg/mL (≈ 4.82 µM) and the body weight decrease ([9]; mouse, in vivo, iv, 5 mg/kg) was “more than 15%”. The “body weights of the mice” value ([9]; mouse, in vivo, iv, 5 mg/kg) was “significantly decreased” and the death of mice [9, 14] was “minormice died”.

With “modified pectin-PEG8-VAPABC-adriamycin [pectin-adriamycin conjugate]” the “tumor growth inhibition rate” value [1] was 78.1%, the “tumor growth inhibition rate” value [2] was 71.68% and the curative effect [10] was “better than that of the adriamycin control”. The “tumor growth inhibition rate” value [3] was 72.98%, the tumor inhibition rate [11, 15] was 76.20% and the inhibition time ([11]; same dosage, versus control compound (FIG. 9)) was “longer”. The “IC50, HepG-2 liver cancer” value ([4]; 48 hours incubation) was 4.11 µg/mL, the “IC50, SKOV3 ovarian cancer” value ([5]; 48 hours incubation) was 5.488 µg/mL and the “IC50, HT-29 colon cancer” value ([6]; 48 hours incubation) was 10.74 µg/mL. The “IC50, MCF-7 breast cancer” value ([7]; 48 hours incubation) was 3.961 µg/mL, the “IC50, SMMC7721 liver cancer” value ([8]; 48 hours incubation) was 2.31 µg/mL and the Solubility in water [12] was 10 mg/ml, solubility being. The “body weights of the mice” value [9, 14] was “not significantly decreased”, the death of mice [9, 14] was “no a mouse died” and the tumor inhibition rate [13, 15] was 70.83%. The inhibition time ([13]; same dosage, versus control compound (FIG. 8)) was “longer”.
